SMILES strings stand for the structures.

Among the data in US11649255B2, “Indazoles as hematopoietic progenitor kinase 1 (HPK1) inhibitors and methods using same” (1st Biotherapeutics, Inc., priority 2020, dated 2023) are IC50 values, retold here.

Chain of recombinant human HPK1 (Q92918 whole entry): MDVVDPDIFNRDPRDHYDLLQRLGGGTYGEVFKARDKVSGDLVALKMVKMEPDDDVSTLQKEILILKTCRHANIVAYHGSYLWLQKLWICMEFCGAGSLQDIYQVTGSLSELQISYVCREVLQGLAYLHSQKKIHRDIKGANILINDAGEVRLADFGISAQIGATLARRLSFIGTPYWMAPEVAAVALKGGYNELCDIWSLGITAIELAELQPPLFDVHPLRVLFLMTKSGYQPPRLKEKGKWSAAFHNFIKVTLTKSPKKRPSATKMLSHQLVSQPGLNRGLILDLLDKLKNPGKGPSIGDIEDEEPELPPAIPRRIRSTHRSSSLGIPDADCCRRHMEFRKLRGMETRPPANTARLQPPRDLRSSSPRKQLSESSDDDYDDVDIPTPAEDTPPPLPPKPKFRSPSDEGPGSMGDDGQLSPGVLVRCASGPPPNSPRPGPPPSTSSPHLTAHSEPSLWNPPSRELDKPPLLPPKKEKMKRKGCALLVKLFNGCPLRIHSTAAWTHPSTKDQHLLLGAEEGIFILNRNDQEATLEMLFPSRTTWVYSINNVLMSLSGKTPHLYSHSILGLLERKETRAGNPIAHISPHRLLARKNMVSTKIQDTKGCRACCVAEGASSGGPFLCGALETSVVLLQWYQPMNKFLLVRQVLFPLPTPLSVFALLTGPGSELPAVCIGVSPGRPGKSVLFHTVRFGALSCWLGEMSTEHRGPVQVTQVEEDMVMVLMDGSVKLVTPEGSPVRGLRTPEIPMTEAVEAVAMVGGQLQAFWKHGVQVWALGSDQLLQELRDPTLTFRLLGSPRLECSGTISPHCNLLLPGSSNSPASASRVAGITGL

This experiment has as its target recombinant human HPK1 (Homo sapiens (Human), UniProt Q92918). Put plainly: HPK1 kinase assay (ADP-Glo). Type of experiment: biochemical. As to conditions: 25 μM ATP, MBP substrate. The procedure:
HPK1 kinase activity was measured by Promega's ADP-Glo™ kinase assay. In this assay, 5 ng of recombinant human HPK1 (signalchem) is incubated with 5 μL of compounds (0.5% DMSO), 5 μL of MBP (0.5 μg/μl) and 5 μL of ATP (25 μM) in buffer (40 mM Tris, 7.5; 20 mM MgCl2; 0.1 mg/ml BSA; 5 μM DTT). The assay was started by incubating the reaction mixture in a 96-well plate at 30′ C for 40 minutes. After the incubation, 25 uL ADP-Glo reagent was added and the reaction was incubated at room temperature for 40-min to stop the reaction and degrade residual ATP. The ADP product was then converted to ATP by adding 50 uL per well of detection reagent. Luminescence was detected after 30-min room temperature incubation with the Molecular device I3X plate reader. The IC50 values were calculated from a series of percent inhibition values determined at a range of inhibitor concentration using software routines as implemented in the GraphPad Prism 7 software and SigmaPlot13.0.
As for `Cc1ccc2[nH]ncc2c1-c1ccc2nc(NC(=O)c3ccccn3)sc2c1` [Example 12, N-(6-(5-methyl-1H-indazol-4-yl)benzo[d]thiazol-2-yl)picolinamide], the IC50 is over 1000 nM.
In the case of `CC(C)(C)OC(=O)NC1CCC(Nc2c(F)c(Cl)c(-c3ccn4nc(NC(=O)[C@@H]5C[C@@H]5F)cc4c3)c3cn[nH]c23)CC1` (stereo partly drawn) [Example 516, tert-butyl (4-((5-chloro-6-fluoro-4-(2-((1S,2S)-2-fluorocyclopropane-1-carboxamido)pyrazolo[1,5-a]pyridin-5-yl)-1H-indazol-7-yl)amino)cyclohexyl)carbamate] it was under 100 nM; in that of `O=C(Nc1cn2cc(-c3c(C4CC4)ccc4[nH]ncc34)ccc2n1)C1CC1` [Example 244, N-(6-(5-cyclopropyl-1H-indazol-4-yl)imidazo[1,2-a]pyridin-2-yl)cyclopropanecarboxamide], 101 to 500 nM; in that of `CC(C)c1c(F)cc2[nH]ncc2c1-c1ccn2nc(NC(=O)[C@@H]3C[C@@H]3F)cc2c1` [Example 462, (1S,2S)-2-fluoro-N-(5-(6-fluoro-5-isopropyl-1H-indazol-4-yl)pyrazolo[1,5-a]pyridin-2-yl)cyclopropane-1-carboxamide], under 100 nM.
In the case of `CCc1c(F)c(SCC(=O)N(C)C)c2[nH]ncc2c1-c1ccn2nc(NC(=O)[C@@H]3C[C@@H]3F)cc2c1` [Example 522], the IC50 is under 100 nM.
In the case of `Cc1c(F)c(N(C)C)c2[nH]ncc2c1-c1ccc2nc(NC(=O)[C@@H]3C[C@@H]3F)cn2c1` [Example 273, (1S,2S)-N-(6-(7-(dimethylamino)-6-fluoro-5-methyl-1H-indazol-4-yl)imidazo[1,2-a]pyridin-2-yl)-2-fluorocyclopropane-1-carboxamide] it was under 100 nM; in that of `O=C(Nc1cc2cc(-c3c(Cl)c(F)c(C(F)F)c4[nH]ncc34)ccn2n1)[C@@H]1C[C@@H]1F` [Example 581, (1S,2S)-N-(5-(5-chloro-7-(difluoromethyl)-6-fluoro-1H-indazol-4-yl)pyrazolo[1,5-a]pyridin-2-yl)-2-fluorocyclopropane-1-carboxamide], under 100 nM.
Consider `CN(C)CCOc1ccc2[nH]ncc2c1-c1ccc2nc(NC(=O)[C@@H]3C[C@@H]3F)sc2c1` [Example 31, (1S,2S)-N-(6-(5-(2-(dimethylamino)ethoxy)-1H-indazol-4-yl)benzo[d]thiazol-2-yl)-2-fluorocyclopropane-1-carboxamide], for which the IC50 was over 1000 nM.
For the compound `CN(c1c(F)c(Cl)c(-c2ccc3nc(NC(=O)[C@@H]4C[C@@H]4F)sc3c2)c2cn[nH]c12)C1CNC1` [Example 129, (1S,2S)-N-(6-(7-(azetidin-3-yl(methyl)amino)-5-chloro-6-fluoro-1H-indazol-4-yl)benzo[d]thiazol-2-yl)-2-fluorocyclopropane-1-carboxamide], the IC50 is under 100 nM.
Take `CSc1ccc(-c2ccc3nc(NC(=O)[C@@H]4C[C@@H]4F)sc3n2)c2cn[nH]c12` [Example 212, (1S,2S)-2-fluoro-N-(5-(7-(methylthio)-1H-indazol-4-yl)thiazolo[5,4-b]pyridin-2-yl)cyclopropane-1-carboxamide]: the IC50 was over 1000 nM.
As for `C=CC(=O)Nc1cc2[nH]ncc2c(-c2ccc3nc(NC(=O)[C@@H]4C[C@@H]4F)cn3c2)c1Cl` [Example 286, (1S,2S)-N-(6-(6-acrylamido-5-chloro-1H-indazol-4-yl)imidazo[1,2-a]pyridin-2-yl)-2-fluorocyclopropane-1-carboxamide], the IC50 is over 1000 nM.
As for `Cn1nnnc1-c1c(F)c(Cl)c(-c2ccc3nc(NC(=O)[C@@H]4C[C@@H]4F)cn3c2)c2cn[nH]c12` [Example 350, (1S,2S)-N-(6-(5-chloro-6-fluoro-7-(1-methyl-1H-tetrazol-5-yl)-1H-indazol-4-yl)imidazo[1,2-a]pyridin-2-yl)-2-fluorocyclopropane-1-carboxamide], the IC50 is under 100 nM.
On to `COCc1c(F)c(Cl)c(-c2ccc3nc(NC(=O)[C@@H]4C[C@@H]4F)cn3c2)c2cn[nH]c12` [Example 390, (1S,2S)-N-(6-(5-chloro-6-fluoro-7-(methoxymethyl)-1H-indazol-4-yl)imidazo[1,2-a]pyridin-2-yl)-2-fluorocyclopropane-1-carboxamide], for which the IC50 was under 100 nM.
The result for `O=C(Nc1cn2cc(-c3c(Cl)c(F)c(Cn4nccn4)c4[nH]ncc34)ccc2n1)[C@@H]1C[C@@H]1F` [Example 383, (1S,2S)-N-(6-(7-((2H-1,2,3-triazol-2-yl)methyl)-5-chloro-6-fluoro-1H-indazol-4-yl)imidazo[1,2-a]pyridin-2-yl)-2-fluorocyclopropane-1-carboxamide] reads under 100 nM; that for `O=C(Nc1nc2ccc(-c3c(Cl)c(F)c(F)c4[nH]ncc34)nc2s1)[C@@H]1C[C@@H]1F` [Example 208, (1S,2S)-N-(5-(5-chloro-6,7-difluoro-1H-indazol-4-yl)thiazolo[5,4-b]pyridin-2-yl)-2-fluorocyclopropane-1-carboxamide 2,2,2-trifluoroacetate], under 100 nM; that for `CC(C#N)N(C(=O)OCc1ccccc1)c1c(F)c(Cl)c(-c2ccn3nc(NC(=O)[C@@H]4C[C@@H]4F)cc3c2)c2cn[nH]c12` (stereo partly drawn) [Example 643, benzyl (5-chloro-6-fluoro-4-(2-((1S,2S)-2-fluorocyclopropane-1-carboxamido)pyrazolo[1,5-a]pyridin-5-yl)-1H-indazol-7-yl)(1-cyanoethyl)carbamate], 101 to 500 nM.
The result for `CN(c1c(F)c(Cl)c(-c2ccn3nc(NC(=O)[C@@H]4C[C@@H]4F)cc3c2)c2cn[nH]c12)C1CC1` [Example 625, (1S,2S)-N-(5-(5-chloro-7-(cyclopropyl(methyl)amino)-6-fluoro-1H-indazol-4-yl)pyrazolo[1,5-a]pyridin-2-yl)-2-fluorocyclopropane-1-carboxamide] reads under 100 nM.
Regarding `Cc1c(F)c(N(C)C)c2[nH]ncc2c1-c1ccn2nc(NC(=O)[C@@H]3C[C@@H]3F)cc2c1` [Example 490, (1S,2S)-N-(5-(7-(dimethylamino)-6-fluoro-5-methyl-1H-indazol-4-yl)pyrazolo[1,5-a]pyridin-2-yl)-2-fluorocyclopropane-1-carboxamide], the IC50 is under 100 nM.
In the case of `Cc1c(F)cc2[nH]nc(Cl)c2c1-c1ccc2nc(NC(=O)[C@@H]3C[C@@H]3F)sc2c1` [Example 44, (1S,2S)-N-(6-(3-chloro-6-fluoro-5-methyl-1H-indazol-4-yl)benzo[d]thiazol-2-yl)-2-fluorocyclopropane-1-carboxamide] it was 501 to 1000 nM.
For `CCC(C)Nc1c(F)c(Cl)c(-c2ccc3nc(NC(=O)[C@@H]4C[C@@H]4F)cn3c2)c2cn[nH]c12` (stereo partly drawn) [Example 370, (1S,2S)-N-(6-(7-(sec-butylamino)-5-chloro-6-fluoro-1H-indazol-4-yl)imidazo[1,2-a]pyridin-2-yl)-2-fluorocyclopropane-1-carboxamide], the IC50 is under 100 nM.
As to `CN(c1c(F)c(Cl)c(-c2ccn3nc(NC(=O)[C@@H]4C[C@@H]4F)cc3c2)c2cn[nH]c12)C1CCC(N)C1` (stereo partly drawn) [Example 527, (1S,2S)-N-(5-(7-((3-aminocyclopentyl)(methyl)amino)-5-chloro-6-fluoro-1H-indazol-4-yl)pyrazolo[1,5-a]pyridin-2-yl)-2-fluorocyclopropane-1-carboxamide], the IC50 was under 100 nM.
As to `CCOc1c(F)c(N(C)C)c2[nH]ncc2c1-c1ccn2nc(NC(=O)[C@@H]3C[C@@H]3F)cc2c1` [Example 610, (1S,2S)-N-(5-(7-(dimethylamino)-5-ethoxy-6-fluoro-1H-indazol-4-yl)pyrazolo[1,5-a]pyridin-2-yl)-2-fluorocyclopropane-1-carboxamide], the IC50 was under 100 nM.
The result for `CC(C)c1c(F)cc2[nH]ncc2c1-c1ccc2nc(NC(=O)[C@@H]3C[C@@H]3F)sc2n1` [Example 150, (1S,2S)-2-fluoro-N-(5-(6-fluoro-5-isopropyl-1H-indazol-4-yl)thiazolo[5,4-b]pyridin-2-yl)cyclopropane-1-carboxamide] reads under 100 nM.
For `CCN(C)c1c(F)c(SC)c(-c2ccc3nc(NC(=O)[C@@H]4C[C@@H]4F)sc3c2)c2cn[nH]c12` [Example 138, (1S,2S)-N-(6-(7-(ethyl(methyl)amino)-6-fluoro-5-(methylthio)-1H-indazol-4-yl)benzo[d]thiazol-2-yl)-2-fluorocyclopropane-1-carboxamide], the IC50 was under 100 nM.
As for `CN(C)c1c(F)c(C(F)(F)F)c(-c2ccc3nc(NC(=O)[C@@H]4C[C@@H]4F)sc3c2)c2cn[nH]c12` [Example 130, (1S,2S)-N-(6-(7-(dimethylamino)-6-fluoro-5-(trifluoromethyl)-1H-indazol-4-yl)benzo[d]thiazol-2-yl)-2-fluorocyclopropane-1-carboxamide], the 50% inhibitory concentration (IC50) was under 100 nM.
The result for `CC(C)(C)OC(=O)c1ccc2[nH]ncc2c1-c1ccc2nc(NC(=O)C3CC3)sc2c1` [Example 21, tert-butyl 4-(2-(cyclopropanecarboxamido)benzo[d]thiazol-6-yl)-1H-indazole-5-carboxylate] reads over 1000 nM; that for `CSc1c(F)c(F)c2[nH]ncc2c1-c1ccc2nc(NC(=O)[C@@H]3C[C@@H]3F)sc2n1` [Example 187, (1S,2S)-N-(5-(6,7-difluoro-5-(methylthio)-1H-indazol-4-yl)thiazolo[5,4-b]pyridin-2-yl)-2-fluorocyclopropane-1-carboxamide], under 100 nM; that for `O=C(Nc1cc2cc(-c3c(C4CC4)ccc4[nH]ncc34)ccn2n1)[C@@H]1C[C@@H]1F` [Example 459, (1S,2S)-N-(5-(5-cyclopropyl-1H-indazol-4-yl)pyrazolo[1,5-a]pyridin-2-yl)-2-fluorocyclopropane-1-carboxamide], 101 to 500 nM.
